From patent US20170176446A1, “Methods for Determining the Oncogenic Condition of Cell, Uses Thereof, and Methods for Treating Cancer” (INSERM (INSTITUT NATIONAL DE LA SANTE ET DE LA RECHERCHE …, priority 2009, published 2017)

Key:
[1] = molecular target: T1, ChEH (Rattus norvegicus, UniProt Q9JJ46); experiment: Determination of the Ki for ChEH on rat liver microsome proteins (Dixon method); type: biochemical; conditions: 150 μg rat liver microsome proteins, [14C]CEα
T1 construct: 150 μg of rat liver microsome proteins are incubated; from tissue; host or cells: rat liver microsomes
T1 sequence (Q9JJ46 1-230): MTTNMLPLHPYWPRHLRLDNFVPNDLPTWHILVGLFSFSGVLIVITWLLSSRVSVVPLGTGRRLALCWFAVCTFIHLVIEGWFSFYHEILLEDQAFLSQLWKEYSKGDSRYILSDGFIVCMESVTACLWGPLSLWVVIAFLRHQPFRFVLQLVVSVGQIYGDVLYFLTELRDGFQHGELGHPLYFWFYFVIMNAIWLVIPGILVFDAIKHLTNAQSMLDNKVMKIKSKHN

[2] = system: MCF7 cells; experiment: OCDO production by MCF7 cells incubated with [14C]CE, thin-layer chromatography; type: cell-based, human; conditions: for % CE / % CT / % OCDO: [14C]CEα, concentration given with each compound, share of labeled oxysterols
Excerpt: For assays 1 to 5 and in some of the examples given later in this patent application, MCF7 tumor cells, which originate from the American Tissue Culture Collection (ATCC), were used. […] It is desired to study the activity of ChEH in […] cells by silica thin-layer chromatography. The compounds that it is desired to visualize are the CE and CT compounds defined above. In order to visualize the spots corresponding to CE and CT on a chromatography plate, ^14C-labeled CE and CT compounds were synthesized.
In order to be used in assays 1 to 5 which follow, the cells are seeded into 6-well plates at a density of 80 000 cells in a volume of 2 ml. […] After the incubation time desired for the assay, the medium is collected, the cells are washed with cold PBS (phosphate buffer) (2 ml per well) which is pooled with the medium. The cells are then scraped into cold PBS (1 ml for 3 wells); the wells are again rinsed with cold PBS (1 ml for 3 wells). The cell suspension obtained is centrifuged at 1000 rpm for 5 min at 4° C. […] Throughout the rest of this description, the vehicle solvent used is the same as that defined above.
The aqueous and organic radioactivities are counted. The organic phases are brought to dryness under argon. The residue is resuspended in 60 μl of ethanol and then deposited, in a proportion of 20 μl per lane, on to the glass-backed silica plates (Whatman LK-6-DF, 20×20), which are used in the various assays (these plates having been preheated at 100° C. for 1 hour). The migration solvent used is ethyl acetate. The chromatography plates are placed in contact with a “phosphor-screen” plate in a cassette overnight. […] In order to evaluate the more or less dense nature of the spots obtained on the plates, the radioactivity is quantified by densitometry with the “Imagequant”™ computer program.
(§1) Generally, in order to establish the percentages of OCDO inhibition from the thin-layer chromatography (TLC) plates obtained as in assay 2, the radioactive metabolites are identified and quantified on the basis of said plates using a europium-sensitive plate of GP Phosphor screen type (GE Healthcare) and a Storm 840 phosphorimagor (GE Healthcare). The proportion of radiolabeled oxysterols is determined on the autoradiogram obtained by densitometry using the Image Quant 5.2 software. The percentage is calculated on the basis of the ratio between the amount of oxysterols quantified divided by the sum of the amounts of oxysterols (CEE+CE+CT+OCDO). Since the CEE (CE ester) originates exclusively from the CE, the percentage CE is calculated on the basis of the ratio (CE+CEE)/(CE+CEE+CT+OCDO).
Assay 2 given above was therefore completed by measuring the amounts of the products present when the MCF7 tumor cells are incubated as indicated in detail in assay 2.
In order to establish that the link that exists between, on the one hand, the ability of various compounds to inhibit OCDO in an MCF7 tumor cell and, on the other hand, their quality as a ChEH inhibitor, is well-founded, the inhibition coefficients Ki for ChEH relating to a certain number of products was calculated and the production of OCDO by MCF7 cells after incubation of the cells with the same products was measured according to the protocol defined in assay 2 of the present patent application.

[3] = system: MCF7 cells; experiment: OCDO production by MCF7 cells incubated with [14C]CT for 24 hours (example 11); type: cell-based, human; conditions: 10 μM, control = 100
Description: as §1
The following experiments were carried out: MCF7 tumor cells were placed in the presence of 0.5 μM of [^14C]CT and were then incubated for 24 hours in the presence of one of the following products: • 1. vehicle solvent (0.1% ethanol in a PBS buffer) serving as a control (lane 1) • 2. 10 μM of progesterone • 3. 10 μM of U18666A • 4. 100 nM of TCDD • 5. 10 μM of benzo(A)pyrene • 6. 10 μM of resveratrol • 7. 10 μM of PDM2 (Ant. 1).
Thin-layer chromatographies were carried out and FIG. 24 represents the plate obtained. The OCDO production in the treated cells was quantified from the spots of the various lanes, by applying the protocol given in detail in example 7. The results of this quantification are represented by the histogram of FIG. 24.
The amounts of OCDO produced by MCF7 cells, when they are incubated according to the same protocol as defined above with other Ahr receptor antagonists, was also measured, the control test being brought to 100 and the OCDO production being expressed as % of the control (same control as above).

[4] = concentration in μM in parentheses after each molecule, control = 100

Molecule	Ki [1]	OCDO production by MCF-7 (% control) [2, 4]	also measured
CC/C(=C(\c1ccc(O)cc1)c1ccc(OCCN(C)C)cc1)c1ccccc1 [4OH-Tamoxifen, 4-[(Z)-1-[4-(2-dimethylaminoethyloxy)-phenyl]-2-phenylbut-1-enyl]phenol]	145 ± 4 nM	<1 % control	
Clc1ccccc1CNC[C@H]1CC[C@H](CNCc2ccccc2Cl)CC1 [AY-9944, trans-1,4-bis(2-chlorobenzaminomethyl)-cyclohexane]	649 ± 6 nM	<1 % control	
CCCCc1oc2ccccc2c1C(=O)c1cc(I)c(OCCN(CC)CC)c(I)c1 [Amiodarone, (2-butyl-1-benzofuran-3-yl)-[4-(2-diethylaminoethyloxy)-3,5-diiodophenyl]methanone]		8 % control	
Clc1ccc(/C=C/c2cc(Cl)cc(Cl)c2)cc1 [Ant 1, (E)-1-(4′-chlorophenyl)-2-(3,5-dichlorophenyl)-ethene]			OCDO production by MCF-7 (% control) [3]: <1 % control
COc1ccc(/C=C/c2cc(F)cc(F)c2)cc1 [Ant 2, (E)-1-(4′-methoxyphenyl)-2-(3,5-fluorophenyl)-ethene]			OCDO production by MCF-7 (% control) [3]: <1 % control
Fc1ccc(/C=C/c2cc(F)cc(F)c2)cc1 [Ant 3, (E)-1-(4′-fluorophenyl)-2-(3,5-fluorophenyl)-ethene]			OCDO production by MCF-7 (% control) [3]: <1 % control
FC(F)(F)c1ccc(/C=C/c2cc(C(F)(F)F)cc(C(F)(F)F)c2)cc1 [Ant 4, (E)-1-(4′-trifluoromethylphenyl)-2-(3,5-trifluoromethylphenyl)ethene]			OCDO production by MCF-7 (% control) [3]: <1 % control
COc1cc(/C=C/c2ccc(F)cc2)cc(OC)c1 [Ant 5, (E)-1-(4′-fluorophenyl)-2-(3,5-dimethoxy-phenyl)ethene]			OCDO production by MCF-7 (% control) [3]: <1 % control
CC(C)CCC[C@@H](C)[C@H]1CC[C@H]2[C@@H]3C[C@@H]4O[C@@]45C[C@@H](O)CC[C@]5(C)[C@H]3CC[C@]12C [CEα, 5,6-α-epoxycholestan-3β-ol]			% CE ([2]; MCF7 cells, three days): 31.5%; % CT ([2]; MCF7 cells, three days): 41.5%; % OCDO ([2]; MCF7 cells, three days): 27%
CCN(CC)CCOc1ccc(/C(=C(\Cl)c2ccccc2)c2ccccc2)cc1 [Clomiphene, 2-[4-[(Z)-2-chloro-1,2-di(phenyl)ethenyl]-phenoxy]-N,N-diethylethanamine]		<1 % control	
O=C(CCCN1CCC(O)(c2ccc(Cl)cc2)CC1)c1ccc(F)cc1 [Haloperidol, 4-(4-(4-chlorophenyl)-4-hydroxypiperidin-1-yl)-1-(4-fluorophenyl)butan-1-one]		42 % control	
COc1ccc(/C(=C(\c2ccccc2)[N+](=O)[O-])c2ccc(OCCN3CCCC3)cc2)cc1 [Nitromiphene, 1-[2-[4-[(Z)-1-(4-methoxyphenyl)-2-nitro-2-phenylethenyl]phenoxy]ethyl]pyrrolidine]	17.7 ± 6 nM	<1 % control	
CC(C)(c1ccccc1)c1ccc(OCCN2CCCC2)cc1 [PCPE, 1-(2-(4-(2-phenylpropan-2-yl)phenoxy)ethyl)-pyrrolidine]	34.7 ± 8 nM	<1 % control	
CCN(CC)CCOc1ccc(C2C[C@]3(C)C(O)CC[C@H]3[C@@H]3CCc4cc(O)ccc4[C@@H]23)cc1 (some centres unmarked) [RU 39,411, 11-[4-N,N-[diethylaminoethoxy]phenyl]estra-1,3,5(10)triene-3,17-diol]	155 ± 8 nM	<1 % control	
O=C(c1ccc(OCCN2CCCCC2)cc1)c1c(-c2ccc(O)cc2)sc2cc(O)ccc12 [Raloxifene, [6-hydroxy-2-(4-hydroxyphenyl)-1-benzothiophen-3-yl]-[4-(2-piperidin-1-ylethoxy)phenyl]methanone]	35.6 ± 4 nM	<1 % control	% CE ([2]; MCF7 cells, three days): 96.5%; % CT ([2]; MCF7 cells, three days): 3%; % OCDO ([2]; MCF7 cells, three days): 0.5%
Oc1ccc(C=Cc2cc(O)cc(O)c2)cc1 [Resveratrol]			OCDO production by MCF-7 (% control) [3]: <1 % control
C[C@@H]1CN(CCCn2c3ccccc3c3ccccc32)C[C@H](C)N1 [Rimcazole, 9-[3-[(3S,5R)-3,5-dimethylpiperazin-1-yl]propyl]carbazole]	2325 ± 8 nM	12 % control	
CCCC(C(=O)OCCN(CC)CC)(c1ccccc1)c1ccccc1 [SKF-525A, 2-diethylaminoethyl-2,2-diphenylpentanoate]	1904 ± 11 nM	<1 % control	
CCN(CC)CCOc1ccc(Cc2ccccc2)cc1 [Tesmilifene, 2-(4-benzylphenoxy)-N,N-diethylethanamine]	62.4 ± 3 nM	<1 % control	% CE ([2]; MCF7 cells, three days): 80.7%; % CT ([2]; MCF7 cells, three days): 10.5%; % OCDO ([2]; MCF7 cells, three days): 8.8%
CN1CCN(CCCN2c3ccccc3Sc3ccc(C(F)(F)F)cc32)CC1 [Trifluoroperazine, 10-[3-(4-methylpiperazin-1-yl)propyl]-2-(trifluoromethyl)phenothiazine]	135 ± 7 nM	<1 % control	
CCN(CC)CCOc1ccc(C(O)(Cc2ccc(Cl)cc2)c2ccc(C)cc2)cc1 (centres unmarked) [Triparanol]	39.5 ± 3 nM	<1 % control	
CCN(CC)CCO[C@H]1CC[C@@]2(C)C(=CC[C@@H]3[C@@H]2CC[C@]2(C)C(=O)CC[C@@H]32)C1 [U-18666A, 3-beta-(2-(diethylamino)ethoxy)androst-5-en-17-one]	90.3 ± 5 nM	<1 % control	
CC(=O)N1CCN(c2ccc(OCC3COC(Cn4ccnc4)(c4ccc(Cl)cc4Cl)O3)cc2)CC1 (centres unmarked) [ketoconazole]			production of the epoxysterol CE and of its derivatives CT and OCDO ([2]; 10 μM ketoconazole, three days, MCF7 cells): inhibition of the production of the epoxysterol CE and of its derivatives
CC[C@H](C)C(=O)O[C@H]1C[C@@H](C)C=C2C=C[C@H](C)[C@H](CC[C@@H]3C[C@@H](O)CC(=O)O3)[C@H]21 [lovastatin]			OCDO production by the MCF7 cells ([2]; 10 μM, control brought to the value 100): less than 1
(E)-N,3,6,6-tetramethyl-N-(naphthalen-1-ylmethyl)hept-2-en-4-yn-1-amine [Terbinafine]	9105 ± 33 nM	<1 % control	
Ibogaine			OCDO production by MCF-7 (% control) [2]: 25 % control
